Experimental data as given in paper PMC5361079 (Scientific Reports, 2017).

Legend:
[1] = system: hiPSC-CM syncytia; assay: Spontaneous FP rate and IMP amplitude/beating rate in hiPSC-CM syncytia (RTCA CardioECR / RTCA Cardio); assay type: cell-based, human; settings: for Effect on FP rate / Effect on IMP amplitude: prodrug co-administered with 0.3 μM amiodarone, steady state (4 h), spontaneously beating hiPSC-CM syncytia
Protocol: hiPSC-CMs (iCells®) from Cellular Dynamics International (CDI, Madison, WI, USA) were seeded onto 48-well CardioECR or 96-well Cardio E-Plates® (ACEA Biosciences Inc., San Diego, CA, USA) coated with 10 μg/mL fibronectin (Sigma Aldrich, Catalog# F1141) at 30,000 cells/well, following manufacturer’s recommendations. Cells were maintained in culture (37 °C, 5% CO2) for a period of 14 days with iCell Maintenance® media (CDI, Madison, WI, USA) exchanged every 2–3 days. Compound addition was only performed on or after Day 14 following cell seeding.
Compound stock solutions were prepared in 100% DMSO or H2O. On the day of compound addition, the media was exchanged with fresh iCell Maintenance® media and allowed to equilibrate for at least 3 h in the incubator. The plates were read on an xCELLigence® RTCA CardioECR or RTCA Cardio (ACEA Biosciences Inc., San Diego, CA, USA). Control pre-reads to establish a baseline were recorded for at least 45 minutes (4 reads at 15-min intervals) prior to compound addition. The compound stock solutions were diluted into iCell Maintenance® media and quickly added to the plate. The plate was continuously monitored for at least 18 h following compound addition. IMP data were sampled at 12 ms (83 Hz), while FP rate data were collected at 0.1 ms (10 KHz). Attachment, growth and viability of syncytia were monitored by means of the baseline IMP signal, as previously described. IMP and FP signals were only interpreted if the baseline IMP was maintained throughout the measurement period (usually ≤18 hrs) at ≥70% of the value before test compound application (pre-read value).

[2] = system: hiPSC-CMs; assay: Intracellular prodrug, cleavage intermediate metabolite and NTP metabolite concentrations in hiPSC-CMs; assay type: in vitro ADME, human; settings: for Intracellular Concentration, Prodrug / Intracellular Concentration, Cleavage Intermediate Metabolite / Intracellular Concentration, NTP Metabolite: hiPSC-CMs; for Intracellular Concentration, Cleavage Intermediate Metabolite / Intracellular Concentration, NTP Metabolite: BLOQ = below 17 pmol/million cells
Protocol: Approximately 18 h before dosing, iCell hiPSC-CMs were switched to iCell cardiomyocyte maintenance media free of Penicillin/Streptomycin. […] […] After the corresponding treatment, cells were washed 2x with 200 μL of ice-cold magnesium- and calcium-free PBS buffer. Cells were then lysed in 100 μL of ice-cold lysis solution (70/30 methanol/water containing 20 mM EDTA and 20 mM EGTA, pH 8) by pipetting up and down 5 times. Plates were sealed and transferred on dry ice for determination of prodrug, cleavage intermediate metabolite, and NTP metabolite concentrations. Intracellular prodrug concentrations were measured using a reversed phase HPLC- high resolution mass spectrometry method. A dimethylhexylamine based ion-pairing HPLC-MS/MS method was used to measure intracellular cleavage intermediate metabolite and NTP metabolite concentrations. Intracellular concentrations (pmol/million cells) of prodrug, cleavage intermediate metabolite, and NTP metabolite were quantitated against calibration standards of the same analytes prepared from control iCell hiPSC-CM lysates.
For prodrug analyses, full scan high resolution mass spectrometry data was collected using an Exactive™ Orbitrap mass spectrometer with an electrospray source operated in the positive ion mode. Prodrug chromatograms were extracted from full scan high resolution mass spectrometry data for the masses indicated in Supplementary Table 5. Absence of endogenous interference(s) was verified by extracting the same ion from full scan high resolution mass spectrometry chromatograms of unspiked control cell lysates. For the cleavage intermediate metabolite and NTP metabolite an electrospray MS/MS method run on a SCIEX API 4000 mass spectrometer with turboV ionspray source was used in negative ion mode monitoring the transitions indicated in Supplementary Table 5. Absence of endogenous interference(s) was verified by monitoring of the same MRM transitions for unspiked control cell lysates. Measured intracellular prodrug, cleavage intermediate metabolite, and NTP metabolite concentrations (in pmol/million cells units) were tabulated (Table 2).

[3] = system: conscious, male rhesus monkeys; settings: intravenous infusion of MK-3682 after AMIO pretreatment; cited from earlier work
[4] = Cardiac tissue concentrations in anesthetized guinea pigs; assay type: in vivo, guinea pig; settings: end of IV infusions, prodrug alone or + amiodarone
[5] = system: anesthetized, male Dunkin-Hartley guinea pigs; assay: Heart rate in anesthetized guinea pigs, IV infusion; assay type: in vivo, guinea pig
Excerpt: Adult, male Dunkin-Hartley guinea pigs (350–550 g) were anesthetized and instrumented as previously described[7][29].

[6] = Plasma concentration in anesthetized guinea pigs; settings: IV
Excerpt: Adult, male Dunkin-Hartley guinea pigs (350–550 g) were anesthetized and instrumented as previously described.

[7] = system: conscious, male rhesus monkeys; assay: Heart rate, MBP and ECG intervals in conscious, restrained rhesus monkeys; assay type: in vivo, rhesus monkey
Protocol: (§1) Arterial BP and ECG waveforms from four chronically-instrumented male, rhesus monkeys (8-16 kg at time of study, approximately 5–8 years of age), were continuously recorded (Notocord-hem™ v 4.3.0.67) and analyzed as described. Prior to study, animals were acclimated to the restraint chair and the laboratory environment over multiple sessions. […] MNI-2 was formulated in 30% Captisol®. […] Samples were placed on wet ice, centrifuged at 4 °C and plasma removed and stored at −70 °C until analysis of concentration of test agents and any metabolites of interest.

[8] = Plasma concentration in conscious rhesus monkeys; settings: at the end of the MNI-2+amiodarone experiment
Protocol: as §1

[9] = 10 μM prodrug + 0.3 μM amiodarone, 4 Hours
[10] = 10 μM prodrug + 0.3 μM amiodarone, 30 Min

## CC(C)OC(=O)[C@@H](C)NP(=O)(OC[C@H]1O[C@@H](n2ccc(=O)[nH]c2=O)[C@](C)(Cl)[C@@H]1O)Oc1ccccc1 (stereo partly drawn) [MK-3682, isopropyl (2R)-2-[[[(2R,3R,4R,5R)-4-chloro-5-(2,4-dioxopyrimidin-1-yl)-3-hydroxy-4-methyl-tetrahydrofuran-2-yl]methoxy-phenoxy-phosphoryl]amino]propanoate]
[1]
  Effect on FP rate: lack of effects
  Effect on IMP amplitude: lack of effects
[2]; [9]
  Intracellular Concentration, Prodrug: 91.9 ± 12.4 pmol/million cells
  Intracellular Concentration, Cleavage Intermediate Metabolite: BLOQ
  Intracellular Concentration, NTP Metabolite: BLOQ
[2]; [10]
  Intracellular Concentration, Prodrug: 95.0 ± 6.7 pmol/million cells
  Intracellular Concentration, Cleavage Intermediate Metabolite: BLOQ
  Intracellular Concentration, NTP Metabolite: BLOQ
[2]; 10 μM prodrug alone, 4 Hours
  Intracellular Concentration, Prodrug: 100.4 ± 13.2 pmol/million cells
  Intracellular Concentration, Cleavage Intermediate Metabolite: BLOQ
  Intracellular Concentration, NTP Metabolite: BLOQ
[2]; 10 μM prodrug alone, 30 Min
  Intracellular Concentration, Prodrug: 89.8 ± 12.9 pmol/million cells
  Intracellular Concentration, Cleavage Intermediate Metabolite: BLOQ
  Intracellular Concentration, NTP Metabolite: BLOQ
[3]
  Bradycardia and bradyarrhythmia: not observed

## CC(C)OC(=O)[C@@H](C)NP(=O)(OC[C@H]1O[C@@H](n2ccc(=O)[nH]c2=O)[C@](C)(F)[C@@H]1O)Oc1ccccc1 (stereo partly drawn) [MNI-2, isopropyl (2R)-2-[[[(2R,3R,4R,5R)-5-(2,4-dioxopyrimidin-1-yl)-4-fluoro-3-hydroxy-4-methyl-tetrahydrofuran-2-yl]methoxy-phenoxy-phosphoryl]amino]propanoate]
[4]
  Cleavage intermediate metabolite and NTP metabolite in cardiac tissue: did not produce detectable levels
[5]; coadministration of 10 mg/kg MNI-2 and 2.5 mg/kg amiodarone IV (cumulative)
  HR, % change from baseline: −9%
[5]; cumulative IV infusion dose 10 mg/kg MNI-2 alone
  HR, % change from baseline: −3%
[6]; agent + vehicle, End of Infusion 1
  Plasma concentration of parent: 4.2 ± 2.1 µM
[6]; agent + vehicle, End of Infusion 2
  Plasma concentration of parent: 4.2 ± 0.9 µM
[6]; agent + vehicle, End of Infusion 3
  Plasma concentration of parent: 3.9 ± 0.1 µM
[6]; agent + vehicle, End of Infusion 4
  Plasma concentration of parent: 3.7 ± 1.0 µM
[6]; treatment MNI-2+AMIO, End of Infusion 1
  Plasma concentration of parent: 3.0 ± 0.8 µM
[6]; treatment MNI-2+AMIO, End of Infusion 2
  Plasma concentration of parent: 3.5 ± 1.0 µM
[6]; treatment MNI-2+AMIO, End of Infusion 3
  Plasma concentration of parent: 3.7 ± 0.6 µM
[6]; treatment MNI-2+AMIO, End of Infusion 4
  Plasma concentration of parent: 3.7 ± 0.9 µM
[1]; 10 μM prodrug combined with 0.3 μM amiodarone, up to 18 h
  Effects on IMP-measured beating rate and IMP amplitude: failed to evoke changes over each drug alone
[1]
  Effect on FP rate: lack of effects
  Effect on IMP amplitude: lack of effects
[2]; following application of prodrug (10 μM) ± amiodarone
  Detection of cleavage intermediate metabolite or NTP in hiPSC-CMs: no measurable concentrations
[2]; [9]
  Intracellular Concentration, Prodrug: 61.0 ± 3.3 pmol/million cells
  Intracellular Concentration, Cleavage Intermediate Metabolite: BLOQ
  Intracellular Concentration, NTP Metabolite: BLOQ
[2]; [10]
  Intracellular Concentration, Prodrug: 54.8 ± 3.3 pmol/million cells
  Intracellular Concentration, Cleavage Intermediate Metabolite: BLOQ
  Intracellular Concentration, NTP Metabolite: BLOQ
[2]; 10 μM prodrug alone, 4 Hours
  Intracellular Concentration, Prodrug: 173.0 ± 133.3 pmol/million cells
  Intracellular Concentration, Cleavage Intermediate Metabolite: BLOQ
  Intracellular Concentration, NTP Metabolite: BLOQ
[2]; 10 μM prodrug alone, 30 Min
  Intracellular Concentration, Prodrug: 53.5 ± 4.5 pmol/million cells
  Intracellular Concentration, Cleavage Intermediate Metabolite: BLOQ
  Intracellular Concentration, NTP Metabolite: BLOQ
[7]; IV infusion of MNI-2 (4, then 2 mg/kg/30 min), alone or after prior administration of amiodarone (3 mg/kg/30 min)
  Effect on HR: no effect
[7]; IV infusion of MNI-2 alone or after pretreatment with amiodarone
  MBP or PR, QRS, QT ECG interval changes: did not result in MBP or PR, QRS, QT ECG interval changes
[8]
  Plasma concentration: 3048 ± 413 ng/mL
